Measured values as given in US9265709B2, “Use of peptides as antidandruff agents” (L'OREAL, priority 2009, dated 2016).
Ends that are not written are not given here.

System: M. furfur
Experiment: Antimicrobial activity (MIC) micromethod in microplates on microorganisms responsible for dandruff
Format: cell-based
Conditions: Sabouraud medium with 10% olive oil, 24 to 48 hours at 32.5° C., OD 620 nm vs control without peptide, peptide tested at 0.1%, 0.25%, 0.5% and 1%
Description: The antimicrobial activity of the peptides used according to the invention may be evaluated by measuring their minimum inhibitory concentration (MIC). Decreasing concentrations of peptides are contacted with standardised inoculum of microorganisms in a culture medium suitable for growth of said microorganisms in exponential growth phase. After incubation at the suitable temperature for the microorganism, the growth is evaluated by an OD (620 nm) measurement. […] The MIC obtained may be compared with the same measurement performed only with solvent (without the peptide) or with a compound of known antibiotic activity. This test may also be used to test the selectivity of the peptides used. This method can be used to determine the effect of the test peptide on a beneficial microorganism of the microbial flora of the scalp such as Staphylococcus epidermidis. Peptides that give on the strains responsible for desquamative disorders of the hair and/or the scalp (e.g., M. furfur) better inhibition than on the beneficial strains (e.g., S. epidermidis) will be selected.
The test has been carried using a micromethod in microplates. […]
After incubation of the microplate from 24 to 48 hours at 32.5° C., optical density at 620 nm has been measured. […]

Substance | MIC
FLSLIPHAINAVSAIAKHF-NH2 (listed as Phyllomedusa azurea) [PS-7] | <0.1%
GLWSTIKNVGKEAAIAAGKAALGAL-NH2 (listed as Phyllomedusa hypochondrialis) [DPh-1] | <0.1%
